The values that follow are results of earlier work, collected in patent publication US6472403B2, “αV integrin receptor antagonists” (Merck & Co., Inc., priority 2000, dated 2002).

Structures are written as SMILES. Where only a bound is given, the exact number is not on record here.

The data set concerns postmenopausal osteoporotic women. Conditions: median of 22 months of treatment.

For `CC[C@H](C)[C@H](NC(=O)[C@H](CCC(=O)O)NC(=O)[C@H](CO)NC(=O)[C@@H](NC(=O)[C@@H](N)CO)C(C)C)C(=O)N[C@@H](CCC(N)=O)C(=O)N[C@@H](CC(C)C)C(=O)N[C@@H](CCSC)C(=O)N[C@@H](Cc1cnc[nH]1)C(=O)N[C@@H](CC(N)=O)C(=O)N[C@@H](CC(C)C)C(=O)NCC(=O)N[C@@H](CCCCN)C(=O)N[C@@H](Cc1cnc[nH]1)C(=O)N[C@@H](CC(C)C)C(=O)N[C@@H](CC(N)=O)C(=O)N[C@@H](CO)C(=O)N[C@@H](CCSC)C(=O)N[C@@H](CCC(=O)O)C(=O)N[C@@H](CCCN=C(N)N)C(=O)N[C@H](C(=O)N[C@@H](CCC(=O)O)C(=O)N[C@@H](Cc1c[nH]c2ccccc12)C(=O)N[C@@H](CC(C)C)C(=O)N[C@@H](CCCN=C(N)N)C(=O)N[C@@H](CCCCN)C(=O)N[C@@H](CCCCN)C(=O)N[C@@H](CC(C)C)C(=O)N[C@@H](CCC(N)=O)C(=O)N[C@@H](CC(=O)O)C(=O)N[C@H](C(=O)N[C@@H](Cc1cnc[nH]1)C(=O)N[C@@H](CC(N)=O)C(=O)N[C@@H](Cc1ccccc1)C(=O)O)C(C)C)C(C)C` [hPTH(1-34)], the “reduction in nonvertebral fractures” value is recorded as 54% and the “reduction in spine fractures” value is reported as at least 65%.
